Holding throughout (assay type): cell-based
The test system of one test is fresh morning saliva. In words: In-vitro test to reduce bad breath (medium inoculated with saliva, incubated, sniffed by panel). Here is the method:
A sterile liquid medium inoculated with fresh morning saliva is incubated for a few days at 37° C. and then sniffed by a panel of testers.
As a control for the tests, Triclosan® (5-chloro-2-(2,4-dichlorophenoxy)phenol) was added to inoculated samples in a concentration of 0.05%.

The subject of another test is Porphyromonas gingivalis. The test is described as follows: Minimum inhibiting concentration, serial-dilution test. Here is the method: (§1) The minimum inhibiting concentration (MIC) of isoeugenol methyl ether was determined in a serial-dilution test against various bacteria.
In another test the test system is Prevotella intermedia. Described as above. How it is done:
as §1

In the next test the test system is Pseudomonas aeruginosa. The description is as above. How it is done: as §1
For another test, the system named is Veilonella parvula. Described as above. Here is the method: as §1
A further test concerns Escherichia coli. Described as above. Here is the method:
as §1

Another test relates to Streptococcus mutans. Described as above. How it is done: as §1
Another test deals with Fusobacterium nucleatum. The description is as above. How it is done: as §1
The next test concerns Staphylococcus aureus. Described as above. How it is done: as §1
Test [1] concerns total number of bacteria in the samples of saliva. In words: Total number of bacteria in samples of saliva. Particulars: concentration of 1000 ppm.

Values after ≈ are worked out from the molar mass of the structure shown. Some results are limits rather than exact numbers.

What is called MIC is the lowest concentration that inhibits growth of the organism. Low readings indicate inhibition by little substance, high ones a need for much substance. In the case of `CC=Cc1ccc(OC)c(OC)c1` (racemic) [isoeugenol methyl ether, 1,2-dimethoxy-4-propenyl benzene], the “odour after the incubation period” value in the test with fresh morning saliva (0.01% added to inoculated samples) was “no odour”; with fresh morning saliva (concentrations of significantly less than 0.01%), “a changed characteristic odour or a mixed odour was discernible in some cases”. The “odour at sensory assessment” value with fresh morning saliva (0.05% added to the inoculated medium just one hour before the sensory assessment) was “an unpleasant mixed odour of bad breath and a faint isoeugenol methyl ether note”. This molecule also came in with a minimum effective concentration with fresh morning saliva (no odour after incubation of inoculated samples) of 0.01%. In addition, the MIC is 500 µg/mL (≈ 2810 µM) with Porphyromonas gingivalis; 500 µg/mL (≈ 2810 µM) against Prevotella intermedia; more than 1000 µg/mL with Pseudomonas aeruginosa; 250 µg/mL (≈ 1400 µM) against Veilonella parvula; more than 1000 µg/mL in the test on Escherichia coli; more than 1000 µg/mL against Streptococcus mutans. Also, the MIC was 250 µg/mL (≈ 1400 µM) in the test with Fusobacterium nucleatum and more than 1000 µg/mL with Staphylococcus aureus. Moreover, in the test on Porphyromonas gingivalis (500 ppm), the Type of action result was “effectiveness”. Further, the Type result in the test with Prevotella intermedia (500 ppm) is reported as “bactericidal action”; in the test on Pseudomonas aeruginosa it was “No action up to 1000 ppm”; with Veilonella parvula (Veilonella parvula, 250 ppm) it was “bacteriostatic action”; with Escherichia coli, “No action up to 1000 ppm”; with Streptococcus mutans, “No action up to 1000 ppm”; with Fusobacterium nucleatum (250 ppm), “bacteriostatic action”. In the test on Staphylococcus aureus, the Type result is listed as “No action up to 1000 ppm”. Further, the “reduction of the total number of bacteria in saliva samples” value in test [1] is reported as “no significant reduction”.

For the molecule `Oc1cc(Cl)ccc1Oc1ccc(Cl)cc1Cl` [Triclosan®, 5-chloro-2-(2,4-dichlorophenoxy)phenol, reference compound], the “odour after the incubation period” value in the test with fresh morning saliva (0.05% added to inoculated samples) is “the same faint odour of medium as the uninoculated samples”.

(Values after patent publication US20080279791A1, “Use of Isoeugenol Methyl Ester as an Agent Against Bad Breath” (SYMRISE GMBH & CO. KG, priority 2004, published 2008).)
